Measurements from patent publication US9765158B2, “Methods for preparation of fucose-linked site specific conjugates of proteins with toxins, adjuvants, detection labels and pharmacokinetic half life extenders” (Probiogen AG, priority 2011, dated 2017).

Assays:
[1] = test system: Antibody expressing CHO cells carrying the RMD transgene; test: Fucose feeding experiment: rescue of core-fucosylation of secreted antibody, PSA lectin blotting; format: cell-based, Chinese hamster; settings: media and feeds supplemented with 0.03 mM; cells grown 12 days; supernatant lectin blot (FIG. 4)
Procedure: Currently, Fucose analogs are not routinely used in cell culture and are thus still expensive. In order to identify the most cost efficient fucose analogue concentration, we needed to determine the minimum required amount of fucose analogue that was sufficient to completely rescue the fucosylation status of heterologously expressed antibodies secreted from RMD-co-expressing cells. Antibody expressing CHO cells carrying the RMD transgene were cultured in medium containing varying concentrations of fucose and fed with a feed mix supplemented with that same amount of fucose. Cells were grown for 12 days before harvesting the cell culture supernatant. The supernatants were analysed by lectin blotting using biotinylated PSA lectin (pisum sativum) that specifically recognizes the alpha-1,6-linked core-fucose. Lectin blotting was conducted using the Vecstatin Elite ABC Kit (Vector Labs, USA) according to the manufacturers instructions.

avidin = avidin (Gallus gallus, UniProt P02701); settings: avidin-biotin complex; cited from earlier work
Sequence of avidin (P02701 25-152, species assumed): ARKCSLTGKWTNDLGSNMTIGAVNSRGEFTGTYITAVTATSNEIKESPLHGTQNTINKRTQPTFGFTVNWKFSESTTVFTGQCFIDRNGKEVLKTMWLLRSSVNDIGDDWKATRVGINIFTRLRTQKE

SMILES	rescue of core-fucosylation [1]	Ka (avidin)
C[C@H](O)[C@@H](O)[C@@H](O)[C@H](O)C=O [Fucose]	almost complete rescue	–
O=C(O)CCCC[C@@H]1SC[C@@H]2NC(=O)N[C@@H]21 [biotin]	–	1015 M⁻¹
